Where “and” joins values, the source holds several entries; their conditions need not be identical. Equal entries are not always repeated. Toxic doses and inconclusive results are not listed. Rule for the calls: active = survival T/C of 150% or more; inactive = T/C below 125% in these data.
System: CD2F1 mice, L1210 leukemia ip, survival T/C
Test: NCI In Vivo Anticancer Drug Screen. Data for tumor model L1210 Leukemia (intraperitoneal) in CD2F1 (CDF1) mice
Conditions: higher = longer survival
In short: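 Each value reflects a quotient of treated over vehicle control outcomes in mice with a transplanted tumor.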

[1] = endpoint: mean survival time, dose: 100.0 mg/kg/injection, schedule: Q01DX009 (ip), vehicle: saline with Tween-80
[2] = endpoint: mean survival time, dose: 100.0 mg/kg/injection, schedule: Q04DX003 (ip), vehicle: saline with Tween-80
[3] = endpoint: mean survival time, dose: 200.0 mg/kg/injection, schedule: Q01DX009 (ip), vehicle: saline with Tween-80
[4] = endpoint: mean survival time, dose: 200.0 mg/kg/injection, schedule: Q04DX003 (ip), vehicle: saline with Tween-80
[5] = endpoint: mean survival time, dose: 400.0 mg/kg/injection, schedule: Q04DX003 (ip), vehicle: saline with Tween-80
[6] = endpoint: mean survival time, dose: 100.0 mg/kg/injection, schedule: Q01DX001 (ip), vehicle: saline with Tween-80
[7] = endpoint: mean survival time, dose: 200.0 mg/kg/injection, schedule: Q01DX001 (ip), vehicle: saline with Tween-80
[8] = endpoint: mean survival time, dose: 400.0 mg/kg/injection, schedule: Q01DX001 (ip), vehicle: saline with Tween-80

Measured: T/C

CC1(C)CC(O)(C(Cl)c2ccccc2)C(=O)c2ccccc21 (configuration not stated)
inactive: endpoint: mean survival time, dose: 25.0 mg/kg/injection, schedule: Q01DX009 (ip), vehicle: water 103 % of control | endpoint: mean survival time, dose: 50.0 mg/kg/injection, schedule: Q01DX009 (ip), vehicle: water 104 % of control | endpoint: mean survival time, dose: 100.0 mg/kg/injection, schedule: Q01DX009 (ip), vehicle: water 98 % of control | endpoint: mean survival time, dose: 100.0 mg/kg/injection, schedule: Q04DX003 (ip), vehicle: acetone 98 % of control | endpoint: mean survival time, dose: 200.0 mg/kg/injection, schedule: Q01DX009 (ip), vehicle: water 109 % of control | endpoint: mean survival time, dose: 200.0 mg/kg/injection, schedule: Q04DX003 (ip), vehicle: acetone 95 % of control | endpoint: mean survival time, dose: 400.0 mg/kg/injection, schedule: Q01DX009 (ip), vehicle: water 107 % of control | endpoint: mean survival time, dose: 400.0 mg/kg/injection, schedule: Q04DX003 (ip), vehicle: acetone 95 % of control

CC(c1ccccc1C(=O)O)c1cc(F)cc2ccccc12 (configuration not stated)
inactive: endpoint: median survival time, dose: 25.0 mg/kg/injection, schedule: Q04DX003 (ip), vehicle: saline with Tween-80 111 % of control | endpoint: median survival time, dose: 50.0 mg/kg/injection, schedule: Q04DX003 (ip), vehicle: saline with Tween-80 111 % of control | endpoint: median survival time, dose: 100.0 mg/kg/injection, schedule: Q04DX003 (ip), vehicle: saline with Tween-80 88 % of control | endpoint: median survival time, dose: 200.0 mg/kg/injection, schedule: Q04DX003 (ip), vehicle: saline with Tween-80 88 % of control

O=C(NCC(S)c1ccc(Cl)cc1)C(F)(F)F (configuration not stated)
inactive: endpoint: mean survival time, dose: 12.5 mg/kg/injection, schedule: Q04DX003 (ip), vehicle: saline with Tween-80 96 % of control | endpoint: mean survival time, dose: 25.0 mg/kg/injection, schedule: Q04DX003 (ip), vehicle: saline with Tween-80 90 % of control | endpoint: mean survival time, dose: 50.0 mg/kg/injection, schedule: Q04DX003 (ip), vehicle: saline with Tween-80 96 % of control

O=C1/C(=C\c2ccccc2)C2OCC=C3CN4CCC56c7ccccc7N1C5C2C3CC46 (configuration not stated)
inactive: endpoint: mean survival time, dose: 75.0 mg/kg/injection, schedule: Q01DX001 (ip), vehicle: other 95 % of control

OC(Cc1nc2ccccc2s1)(C(F)(F)F)C(F)(F)F
inactive: [1] 96 % of control | [2] 95 % of control | [3] 93 % of control | [4] 104 % of control | endpoint: mean survival time, dose: 400.0 mg/kg/injection, schedule: Q01DX009 (ip), vehicle: saline with Tween-80 96 % of control | [5] 97 % of control

N/C(Cc1ccc(N)cc1)=N\O
inactive: [2] 110 % of control

CC1(C)OC(C(COC(c2ccccc2)(c2ccccc2)c2ccccc2)OC(=O)c2ccccc2)C(C(COC(c2ccccc2)(c2ccccc2)c2ccccc2)OC(=O)c2ccccc2)O1 (configuration not stated)
inactive: endpoint: mean survival time, dose: 50.0 mg/kg/injection, schedule: Q01DX009 (ip), vehicle: Klucel (hydroxypropylcellulose) (HPC) 98 % of control | endpoint: mean survival time, dose: 100.0 mg/kg/injection, schedule: Q01DX009 (ip), vehicle: Klucel (hydroxypropylcellulose) (HPC) 94 % of control | endpoint: mean survival time, dose: 200.0 mg/kg/injection, schedule: Q01DX009 (ip), vehicle: Klucel (hydroxypropylcellulose) (HPC) 94 % of control

O.O.[NH-]C1CCCCC1[NH-].[Pt+2] (configuration not stated)
inactive: endpoint: mean survival time, dose: 0.31 mg/kg/injection, schedule: Q01DX009 (ip), vehicle: dextrose 109 % of control | endpoint: mean survival time, dose: 0.63 mg/kg/injection, schedule: Q04DX003 (ip), vehicle: water 124 % of control | endpoint: mean survival time, dose: 1.25 mg/kg/injection, schedule: Q01DX009 (ip), vehicle: dextrose 124 % of control

F[Si](c1ccc(Br)cc1)(c1ccc(Br)cc1)c1ccc(Br)cc1
inactive: endpoint: mean survival time, dose: 50.0 mg/kg/injection, schedule: Q01DX009 (ip), vehicle: saline with Tween-80 102 % of control | [1] 94 % of control | [2] 95 % of control | [4] 93 % of control

ClCCN(CCCl)CCCN1c2ccccc2Sc2ccc(Cl)cc21
inactive: endpoint: mean survival time, dose: 18.0 mg/kg/injection, schedule: Q01DX001 (ip), vehicle: saline with Tween-80 103 % of control | endpoint: mean survival time, dose: 28.0 mg/kg/injection, schedule: Q01DX001 (ip), vehicle: saline with Tween-80 100 % of control | endpoint: mean survival time, dose: 40.0 mg/kg/injection, schedule: Q01DX001 (ip), vehicle: saline with Tween-80 97 % of control | endpoint: mean survival time, dose: 60.0 mg/kg/injection, schedule: Q01DX001 (ip), vehicle: saline with Tween-80 103 % of control | endpoint: mean survival time, dose: 90.0 mg/kg/injection, schedule: Q01DX001 (ip), vehicle: saline with Tween-80 107 % of control | endpoint: mean survival time, dose: 135.0 mg/kg/injection, schedule: Q01DX001 (ip), vehicle: saline with Tween-80 112 % of control

CC(C)C(Br)C(=O)NC(Cc1ccccc1)C(=O)O (configuration not stated)
inactive: [2] 101 % of control | [4] 110 % of control | [5] 122 % of control

Nc1ncnc2[nH]ncc12
inactive: endpoint: median survival time, dose: 3.0 mg/kg/injection, schedule: Q01DX009 (ip), vehicle: saline 100 % of control and 105 % of control | endpoint: median survival time, dose: 6.0 mg/kg/injection, schedule: Q01DX009 (ip), vehicle: saline 114 % of control and 111 % of control | endpoint: median survival time, dose: 12.0 mg/kg/injection, schedule: Q01DX009 (ip), vehicle: saline 121 % of control and 111 % of control

COC1CCC2=C(C1)C(=O)CC1c3ccccc3CCN21 (configuration not stated) (tested in a mixture with another compound)
inactive: endpoint: mean survival time, dose: 6.25 mg/kg/injection, schedule: Q01DX009 (ip), vehicle: saline with Tween-80 96 % of control | endpoint: mean survival time, dose: 12.5 mg/kg/injection, schedule: Q01DX009 (ip), vehicle: saline with Tween-80 98 % of control | endpoint: mean survival time, dose: 25.0 mg/kg/injection, schedule: Q01DX009 (ip), vehicle: saline with Tween-80 96 % of control

Cc1ccc(S(=O)(=O)OCC(O)C(O)C(O)C(C)O)cc1 (configuration not stated)
inactive: [6] 98 % of control | [7] 98 % of control | [8] 102 % of control

CC(=O)Oc1cc([N+](=O)[O-])ccc1C(=O)O
inactive: [1] 102 % of control | [3] 102 % of control

CC(=O)C(=O)Sc1ccccc1
inactive: endpoint: mean survival time, dose: 12.5 mg/kg/injection, schedule: Q04DX002 (ip), vehicle: Klucel (hydroxypropylcellulose) (HPC) 94 % of control | endpoint: mean survival time, dose: 25.0 mg/kg/injection, schedule: Q04DX002 (ip), vehicle: Klucel (hydroxypropylcellulose) (HPC) 105 % of control | endpoint: mean survival time, dose: 50.0 mg/kg/injection, schedule: Q04DX002 (ip), vehicle: Klucel (hydroxypropylcellulose) (HPC) 90 % of control

COc1ccccc1N=Nc1c(O)n(-c2ccccc2OC)c(=S)n(-c2ccc(I)cc2)c1=O
inactive: [6] 96 % of control | [7] 93 % of control | [8] 95 % of control

CN1CCCN(C)C1
inactive: endpoint: mean survival time, dose: 75.0 mg/kg/injection, schedule: Q01DX001 (ip), vehicle: saline 97 % of control | endpoint: mean survival time, dose: 150.0 mg/kg/injection, schedule: Q01DX001 (ip), vehicle: saline 97 % of control | endpoint: mean survival time, dose: 300.0 mg/kg/injection, schedule: Q01DX001 (ip), vehicle: saline 102 % of control

From PubChem BioAssay AID256 (DTP/NCI, 2004)
